Experimental data from article PMC11111955, “Safety and efficacy evaluation of halicin as an effective drug for inhibiting intestinal infections” (Frontiers in Pharmacology, 2024).

How the values were obtained:
[1] = tested on: TA98; assay: Ames test; assay type: cell-based, Salmonella typhimurium; details: TA98, -S9, 50 μg/plate
Method: (§1) The experiments were performed in triplicate.

[2] = tested on: TA97a; assay: Ames test; assay type: cell-based, Salmonella typhimurium; details: -S9, 50 μg/plate
Method: as §1

[3] = tested on: TA100; assay: Ames test; assay type: cell-based, Salmonella typhimurium; details: TA100, -S9, 1 μg/plate
Method: as §1

[4] = tested on: WP2uvApKM101; assay: Ames test; assay type: cell-based, Escherichia coli
Method: as §1

[5] = tested on: bone marrow polychromatic erythrocytes; assay: Micronucleus experiment of mammalian bone marrow cells; details: positive control group, 40 mg/kg cyclophosphamide
[6] = tested on: mouse bone marrow cells; details: positive control group, 40 mg/kg cyclophosphamide
[7] = tested on: Mouse spermatozoa; details: positive control group, 40 mg/kg cyclophosphamide

## CN(C)c1ccc(N=NS(=O)(=O)O)cc1 [DDT, fenaminosulf]
[1]
  Ames test bacterial counts: 2,985 ± 76.4
[2]
  Ames test bacterial counts: 3,451 ± 53.7

## COS(C)(=O)=O [MSM, methyl methanesulfonate]
[3]
  Ames test bacterial counts: 3,042 ± 69.3
[4]; WP2uvApKM101, -S9, 1 μg/plate
  Ames test bacterial counts: 926 ± 45.3

## O=P1(N(CCCl)CCCl)NCCCO1 (centres unmarked) [Positive, cyclophosphamide]
[5]; Female mice
  PCE micronucleus (‰): 18.8 ± 1.9 ‰
  PCE/RBC: 0.5 ± 0.04
[5]; Male mice
  PCE micronucleus (‰): 18.8 ± 2.6 ‰
  PCE/RBC: 0.51 ± 0.09
[6]
  Chromosome aberration (%): 18.6 ± 7.67%
[6]; of 5 × 100 cells at metaphase
  Number of cells with chromosome aberration: 93
[7]; male ICR mice
  Abnormal ratio (%): 8.34 ± 0.47%
[7]; male ICR mice, of 5 × 1,000 sperms observed
  Number of sperm abnormality: 417
[7]
  Abnormal sperms counted ratio (%): Amorphous: 48.33 ± 4.33%
  Abnormal sperms counted ratio (%): Banana shape: 10.58 ± 1.46%
  Abnormal sperms counted ratio (%): Kinks tail: 5.76 ± 0.94%
  Abnormal sperms counted ratio (%): Large round head: 9.37 ± 1.03%
  Abnormal sperms counted ratio (%): No hook: 10.07 ± 1.23%
  Abnormal sperms counted ratio (%): Two head: 5.52 ± 1.36%
  Abnormal sperms counted ratio (%): Two tail: 4.84 ± 1.99%

## Nc1ccc2cc3ccccc3cc2c1 [2-AT, 2-Aminoanthracene]
[4]; WP2uvApKM101, +S9, 10 μg/plate
  Ames test bacterial counts: 546 ± 26.9
